The subject of data set [1] is Candida albicans (ATCC 10231). Briefly: microbe, parasite or virus in culture. The following applies: for minimal inhibitory concentration (MIC): ATCC 10231, 24 h. Format: cell-based. The procedure: Candida albicans (ATCC© 10231^TM) was cultured in Sabouraud medium (Sigma-Aldrich) supplemented with tetracycline (10 μg/mL) and cefotaxime (10 μg/mL) at 37 °C for 24 h. Candida albicans (OD600nm = 0,001) were plated in 96-well plates and treated either with different concentrations of the peptides of interest, and/or with different concentrations of voriconazole (VCZ) (Sigma-Aldrich). As a positive control, cells were treated with 10 μg/mL VCZ. After 24 hours incubation, yeast growth was assessed by optical density OD600nm using a spectrophotometer (Multiscan EX). The MIC of the antifungal agents, defined as the lowest concentration of drug able to inhibit 100% of the growth of a pathogen was determined using a modified Gompertz model.

Data set [2] deals with proteases secreted by Candida albicans. As to the kind of experiment: Peptide stability in the supernatant of Candida albicans (HPLC). Format: in vitro ADME. The following applies: peptide 186 μg/mL = 100 μM in 100 μL filtered supernatant, 37 °C, 24 h; RP-HPLC C18, 214 nm; repeated three times. The procedure:
The supernatant of Candida albicans was prepared as follows: a single colony of Candida albicans was resuspended in 5 mL of Sabouraud medium and incubated at 37 °C overnight. The culture was then centrifuged at 10000 g for 1 min and the supernatant was filtered using a 0.22 μm MillexH-GV (Merck Millipore). In order to check sterility, an aliquot of the supernatant was incubated at 37 °C for 48 h. The absence of growth was interpreted as a lack of viable microorganism.
100 μL of supernatant was then directly incubated or not with L-Ctl or D-Ctl (186 μg/mL = 100 μM) at 37 °C for 24 h. As a control, each peptide (186 μg/mL = 100 μM) as well as the combination ½ MICD-Ctl + ¼ MICVCZ were incubated in water (100 μL) at 37 °C for 24 h. Samples were then separated using a Dionex HPLC system (Ultimate 3000) on a Nucleosil reverse-phase 300–5C18-column (4.6 × 250 mm; particle size: 5 μm; porosity, 300 Å) (Macherey Nagel). Absorbance was monitored at 214 nm and the solvent system consisted of 0.1% (v/v) TFA in water (solvent A) and 0.09% (v/v) TFA in 70% (v/v) acetonitrile-water (solvent B). Elution was performed at a flow rate of 700 μL/min with a gradient of solvent B as indicated on the chromatograms. Each peak was manually collected.

Data set [3] has as its system Candida albicans (ATCC 10231). Briefly: Antifungal combination test D-Ctl + voriconazole (FIC index). Type of data set: cell-based. The method, then: Candida albicans (ATCC© 10231^TM) was cultured in Sabouraud medium (Sigma-Aldrich) supplemented with tetracycline (10 μg/mL) and cefotaxime (10 μg/mL) at 37 °C for 24 h. Candida albicans (OD600nm = 0,001) were plated in 96-well plates and treated either with different concentrations of the peptides of interest, and/or with different concentrations of voriconazole (VCZ) (Sigma-Aldrich). As a positive control, cells were treated with 10 μg/mL VCZ. After 24 hours incubation, yeast growth was assessed by optical density OD600nm using a spectrophotometer (Multiscan EX). The efficiency of the combination between D-Ctl and VCZ was determined by the calculation of the Fractional inhibitory concentration index (FICI) according to the following formula: FICI = FICD-Ctl + […] = (MICD-Ctl in combination/MICD-Ctl alone) + ([…] in combination/[…] alone) . According to EUCAST[38], the effect of the combination is synergistic if FICI ≤ 0,5, additive if 0,5 < FICI ≤ 1, indifferent if 1 < FICI < 2 and antagonistic if FICI ≥ 2.

The next data set concerns Candida albicans. As to the kind of experiment: Time-lapse video microscopy of Candida albicans with rhodamine-labelled peptides. The following applies: for entry into C. albicans: 10 × MIC, 30 min incubation at 37 °C, fluorescence microscopy. Type of data set: cell-based. The method, then: Diluted precultures (1/1000) of Candida albicans were incubated for 1 hour at 37 °C without agitation in glass bottom μ-Dish^35mm,high (Ibidi) previously treated with poly-L-lysine. […] To perform time-lapse video microscopy, the peptides were removed and replaced by Sabouraud medium. Yeasts were then plated at 37 °C, 5% CO2, on a Nikon Eclipse Ti inverted microscope equipped with an Andor Zyla sCMOS camera and a 60X objective. To prevent evaporation, a layer of mineral oil (Sigma) was added on top of the media prior imaging. Images (fluorescence and phase contrast) were captured every 10 min for 20 hours using Nikon NIS-Elements AR software, and processed with ImageJ.

Values after ≈ are worked out from the molar mass of the structure shown. Non-standard residues stand in square brackets, D forms with d. Residues, ends and D or L forms follow the SMILES beside them. No end group written: not given here. rhodamine = not defined here

Regarding `CSCC[C@H](NC(=O)[C@H](CO)NC(=O)[C@@H](N)CCCNC(=N)N)C(=O)N[C@@H](CCCNC(=N)N)C(=O)N[C@@H](CC(C)C)C(=O)N[C@@H](CO)C(=O)N[C@@H](Cc1ccccc1)C(=O)N[C@@H](CCCNC(=N)N)C(=O)N[C@@H](C)C(=O)N[C@@H](CCCNC(=N)N)C(=O)NCC(=O)N[C@@H](Cc1ccc(O)cc1)C(=O)NCC(=O)N[C@@H](Cc1ccccc1)C(=O)N[C@@H](CCCNC(=N)N)C(=O)O` [L-Ctl, Cateslytin] (H-RSMRLSFRARGYGFR-OH), the “minimal inhibitory concentration (MIC)” value in data set [1] stood at 7.9 µg/mL (≈ 4.25 µM). The “stability in the supernatant of Candida albicans” value in data set [2] is “the peak of L-Ctl disappeared”.
In the case of `C[C@@H](c1ncncc1F)[C@](O)(Cn1cncn1)c1ccc(F)cc1F` [VCZ, voriconazole], in data set [1] (Candida albicans, ATCC10231, lowest concentration inhibiting 100% of C. albicans growth, Sabouraud medium, 24 h, OD600nm, average of at least three experiments, read-out: minimal inhibitory concentration (MIC)), the MIC stood at 0.07 µg/mL (≈ 0.2 µM). Further, the “FIC (fractional inhibitory concentration) of the single agent in the combination” value in data set [3] (MIC in combination / MIC alone) is listed as 0.5. Besides, the “fold decrease of VCZ concentration by adding D-Ctl” value in data set [3] (with ½ MIC D-Ctl) was found to be 4. For the same compound, the “concentration of VCZ in the combination (¼ MIC VCZ)” value in data set [3] (with ½ MIC D-Ctl, kills 100% of C. albicans) was 0.018 µg/mL.
As for `CSCC[C@@H](NC(=O)[C@@H](CO)NC(=O)[C@H](N)CCCNC(=N)N)C(=O)N[C@H](CCCNC(=N)N)C(=O)N[C@H](CC(C)C)C(=O)N[C@H](CO)C(=O)N[C@H](Cc1ccccc1)C(=O)N[C@H](CCCNC(=N)N)C(=O)N[C@H](C)C(=O)N[C@H](CCCNC(=N)N)C(=O)NCC(=O)N[C@H](Cc1ccc(O)cc1)C(=O)NCC(=O)N[C@H](Cc1ccccc1)C(=O)N[C@H](CCCNC(=N)N)C(=O)O` [D-Ctl, D-Cateslytin] (H-[dR][dS][dM][dR][dL][dS][dF][dR][dA][dR]G[dY]G[dF][dR]-OH), the “minimal inhibitory concentration (MIC)” value in data set [1] was 5.5 µg/mL (≈ 2.96 µM). Besides, the “stability in the supernatant of Candida albicans” value in data set [2] is “still present”.
As for “Rho-L-Ctl: L-Ctl with a rhodamine moiety on the N-terminal end, used for video microscopy (rhodamine-RSMRLSFRARGYGFR; reading uncertain)”, the “entry into C. albicans” value with Candida albicans is “able to enter”.
For “Rho-D-Ctl: D-Ctl with a rhodamine moiety on the N-terminal end, used for video microscopy (rhodamine-[dR][dS][dM][dR][dL][dS][dF][dR][dA][dR]G[dY]G[dF][dR]; reading uncertain)”, in the data set on Candida albicans, the “entry into C. albicans” value is “able to enter”. Further, the “effect on colonies totally invaded” value in the data set on Candida albicans (Rho-D-Ctl 10 × MIC (55 μg/mL), time-lapse video microscopy) was “systematic arrest of fungal growth and ongoing cellular divisions”.

These data come from article PMC6006364, “D-Cateslytin: a new antifungal agent for the treatment of oral Candida albicans associated infections” (Scientific Reports, 2018).
